Series [1] can be described thus: Plasma clearance in rat at 3 mg/kg, iv. Details: dose 3 mg/kg, route intravenous. The class given is ADME, organism-based.
Series [2] concerns Streptococcus pneumoniae. The experiment in a line: Antimicrobial activity against Streptococcus pneumoniae D39. In kind it is functional.
Series [3] relates to Streptococcus pneumoniae. The experiment in a line: Antibacterial activity against Streptococcus pneumoniae. The class given is functional.
A short description of series [4]: Total clearance in iv dosed rat. In kind it is ADME, organism-based. Conditions: in vivo.
Series [5] is described as follows: Lipophilicity, log D of the compound. Conditions: octanol/water.
Series [6] in a line: Renal clearance in iv dosed rat. The class given is ADME, organism-based, Kidney. The settings on record: in vivo.
Series [7] relates to Rattus norvegicus. The experiment in a line: Hepatic blood flow in iv dosed rat. The class given is ADME, organism-based, Liver. The settings on record: in vivo.
The nature of series [8]: Oral bioavailability in dog. The settings on record: in vivo. The class given is ADME, organism-based, Canis lupus familiaris.
Series [9] deals with Canis familiaris. The experiment in a line: Hepatic blood flow in iv dosed dog. In kind it is ADME, organism-based, Canis lupus familiaris, Liver. The settings on record: in vivo.
A short description of series [10]: Oral bioavailability in rat. Conditions: in vivo. In kind it is ADME, organism-based.
A short description of series [11]: Fraction unbound in human plasma. The class given is ADME, cell-free.
The nature of series [12]: Clearance in iv dosed dog. In kind it is ADME, organism-based, Canis lupus familiaris. The settings on record: in vivo.
Series [13] in a line: Solubility of the compound. In kind it is physicochemical.

In brackets after ≈: the same amount, converted by molar mass.

As to `Nc1nc(OC2CCCC2)nc2c1ncn2[C@@H]1O[C@H](CF)[C@@H](O)[C@H]1O`, the clearance in [1] is 83 mL/min/kg. In series [2], this compound showed an MIC of 4 µg/mL (≈ 11.3 µM).
For `C[C@H]1O[C@@H](n2cnc3c(N)nc(OC4CCCC4)nc32)[C@H](O)[C@@H]1O`, in that order: 43 mL/min/kg and 2 µg/mL (≈ 5.96 µM).
On the same counts, the results for `Nc1nc(OCC2CCC2)nc2c1ncn2[C@@H]1O[C@H](CF)[C@@H](O)[C@H]1O` are 73 mL/min/kg and 2 µg/mL (≈ 5.66 µM).
Compound `C[C@H]1O[C@@H](n2cnc3c(N)nc(O[C@H]4CC[C@H](C)CC4)nc32)[C@H](O)[C@@H]1O` gave a clearance in series [1] of 89 mL/min/kg. This compound also had an MIC in [2] of 1 µg/mL (≈ 2.75 µM).
For `C[C@H]1O[C@@H](n2cnc3c(N)nc(OCC4CC45CC5)nc32)[C@H](O)[C@@H]1O` (some centres not stated), in that order: 96 mL/min/kg and 1 µg/mL (≈ 2.88 µM).
For `C[C@H]1O[C@@H](n2cnc3c(N)nc(OC4C[C@@H]5C[C@@H]5C4)nc32)[C@H](O)[C@@H]1O` (some centres not stated), in that order: 50 mL/min/kg and 2 µg/mL (≈ 5.76 µM).
For `C[C@H]1O[C@@H](n2cnc3c(N)nc(OC4CCOC4)nc32)[C@H](O)[C@@H]1O` (some centres not stated), the MIC in series [3] turned out to be 16 µg/mL (≈ 47.4 µM). This compound also had a clearance in series [4] of 67 mL/min/kg. This compound also registered a logD in [5] of -0.06. The same compound gave a CL renal in series [6] of 13 mL/min/kg.
In [3], `Nc1nc(OCC2CC2)nc2c1ncn2[C@@H]1O[C@H](CF)[C@@H](O)[C@H]1O` yielded an MIC of 8 µg/mL (≈ 23.6 µM). The compound also yielded a clearance in [4] of 49 mL/min/kg. In series [6], this compound yielded a CL renal of 13 mL/min/kg.
On the same counts, the results for `CC1CC1COc1nc(N)c2ncn([C@@H]3O[C@H](CF)[C@@H](O)[C@H]3O)c2n1` (some centres not stated) are 4 µg/mL (≈ 11.3 µM), 115 mL/min/kg and 11 mL/min/kg.
In [3], `C[C@H]1O[C@@H](n2cnc3c(N)nc(O[C@H]4CC[C@H](C(F)(F)F)CC4)nc32)[C@H](O)[C@@H]1O` showed an MIC of 2 µg/mL (≈ 4.79 µM). The QH was 39% in series [7] and 20% in series [9]. In addition, the bioavailability is 88% in series [8] and 86% in series [10]. In addition, the values for the clearance in series [4] and in [12] were 27 mL/min/kg and 7.7 mL/min/kg, respectively. The compound also had a fraction unbound in [11] of 0.2. Also, the pH-dependent lipophilicity (logD) in series [5] was 2.2. In [13], this compound had a solubility of 800 µM (≈ 334 µg/mL). Moreover, the CL renal in series [6] turned out to be 2 mL/min/kg.
Take `C[C@H]1O[C@@H](n2cnc3c(N)nc(OC4CCC(F)(F)CC4)nc32)[C@H](O)[C@@H]1O`: the MIC in series [3] is 8 µg/mL (≈ 20.8 µM). In series [4], this compound displayed a clearance of 33 mL/min/kg. In addition, in [6], the CL renal stood at 15 mL/min/kg.
In series [3], `C[C@H]1O[C@@H](n2cnc3c(N)nc(OC(C4CC4)C(F)(F)F)nc32)[C@H](O)[C@@H]1O` (some centres not stated) yielded an MIC of 8 µg/mL (≈ 20.5 µM). This compound also registered a clearance in [4] of 73 mL/min/kg. For the same compound, the logD in series [5] is 1.8. Further, the CL renal in [6] turned out to be 5 mL/min/kg.
For `C[C@H]1O[C@@H](n2cnc3c(N)nc(OCC4CC(F)(F)C4(F)F)nc32)[C@H](O)[C@@H]1O` (some centres not stated), in that order: 4 µg/mL (≈ 9.82 µM), 85 mL/min/kg, 1.4 and 17 mL/min/kg.
For `C[C@H]1O[C@@H](n2cnc3c(N)nc(OC4CC(F)(F)C4(F)F)nc32)[C@H](O)[C@@H]1O` (some centres not stated), in that order: 16 µg/mL (≈ 40.7 µM), 23 mL/min/kg, 1.3 and 16 mL/min/kg.
For `C[C@H]1O[C@@H](n2cnc3c(N)nc(OCC4CCC(F)(F)CC4)nc32)[C@H](O)[C@@H]1O`, in that order: 16 µg/mL (≈ 40.1 µM), 58 mL/min/kg, 1.7 and 8 mL/min/kg.

Values taken from ChEMBL document CHEMBL1933055, “Discovery of bacterial NAD⁺-dependent DNA ligase inhibitors: improvements in clearance of adenosine series” (Bioorg Med Chem Lett, 2012).
